Measured values as given in ChEMBL document CHEMBL5143537, “Quinazoline-based hydroxamic acid derivatives as dual histone methylation and deacetylation inhibitors for potential anticancer agents” (Bioorg Med Chem, 2022).
Active and inactive are the calls of the source. The rule behind the calls is not given here.

What was measured:
[1] = system: HepG2; test: Induction of apoptosis in human HepG2 cells assessed as necrotic cells at 20 uM measured after 48 hrs by Annexin V-FITC/propidium iodide staining based flow cytometry (reference value: 0%); type: functional
[2] = system: HepG2; test: Cell cycle arrest in human HepG2 cells assessed as accumulation at S phase at 10 uM measured after 48 hrs by propidium iodide staining based flow cytometry (reference value: 32.39%); type: functional
[3] = biological target: Histone deacetylase 1 (Homo sapiens, UniProt Q13547); test: Inhibition of recombinant human HDAC1 expressed in baculovirus infection system using Ac-peptide-AMC as substrate preincubated for 15 mins followed by substrate addition and measured after 60 mins by fluorescence assay
Histone deacetylase 1, sequence (Q13547 whole entry): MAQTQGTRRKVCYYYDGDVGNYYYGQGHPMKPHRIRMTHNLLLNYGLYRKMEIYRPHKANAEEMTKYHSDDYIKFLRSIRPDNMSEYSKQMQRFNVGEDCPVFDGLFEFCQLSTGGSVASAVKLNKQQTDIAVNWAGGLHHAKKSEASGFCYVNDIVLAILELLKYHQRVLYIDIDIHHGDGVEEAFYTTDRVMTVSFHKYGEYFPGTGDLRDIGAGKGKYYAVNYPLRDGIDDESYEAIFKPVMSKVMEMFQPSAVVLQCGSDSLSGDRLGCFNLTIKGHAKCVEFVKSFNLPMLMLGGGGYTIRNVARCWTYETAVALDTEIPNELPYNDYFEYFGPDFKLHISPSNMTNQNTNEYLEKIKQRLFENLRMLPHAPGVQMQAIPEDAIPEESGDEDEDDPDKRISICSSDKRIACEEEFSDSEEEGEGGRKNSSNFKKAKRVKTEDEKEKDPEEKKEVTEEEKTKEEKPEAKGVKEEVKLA

[4] = system: HeLa; test: Antiproliferative activity against human HeLa cells measured after 72 hrs by MTT assay; type: functional, cell-based
[5] = system: HepG2; test: Cell cycle arrest in human HepG2 cells assessed as accumulation at G2/M phase at 5 uM measured after 48 hrs by propidium iodide staining based flow cytometry (reference value: 12.37%); type: functional
[6] = system: MDA-MB-231; test: Antiproliferative activity against human MDA-MB-231 cells measured after 72 hrs by MTT assay; type: functional, cell-based; conditions: MDA-MB-231, 72 h
[7] = system: HepG2; test: Induction of apoptosis in human HepG2 cells assessed as necrotic cells at 2.5 uM measured after 48 hrs by Annexin V-FITC/propidium iodide staining based flow cytometry (reference value: 0%); type: functional
[8] = system: HepG2; test: Cell cycle arrest in human HepG2 cells assessed as accumulation at S phase at 2.5 uM measured after 48 hrs by propidium iodide staining based flow cytometry (reference value: 32.39%); type: functional
[9] = system: HepG2; test: Induction of apoptosis in human HepG2 cells assessed as increase in cleaved caspase-3 expression at 1.25 to 20 uM measured after 48 hrs by Western blot analysis; type: functional, cell-based; conditions: dose 1.25-20 µM
[10] = system: HepG2; test: Induction of apoptosis in human HepG2 cells assessed as increase in cleaved caspase-7 expression at 1.25 to 20 uM measured after 48 hrs by Western blot analysis; type: functional, cell-based; conditions: dose 1.25-20 µM
[11] = system: HepG2; test: Antiproliferative activity against human HepG2 cells measured after 72 hrs by MTT assay; type: functional, cell-based; conditions: HepG2, 72 h
[12] = system: HepG2; test: Induction of apoptosis in human HepG2 cells assessed as early apoptotic cells at 5 uM measured after 48 hrs by Annexin V-FITC/propidium iodide staining based flow cytometry (reference value: 6.87%); type: functional
[13] = system: HepG2; test: Cell cycle arrest in human HepG2 cells assessed as accumulation at G2/M phase at 10 uM measured after 48 hrs by propidium iodide staining based flow cytometry (reference value: 12.37%); type: functional
[14] = system: HepG2; test: Cell cycle arrest in human HepG2 cells assessed as increase in p21 expression measured after 24 hrs by Western blot analysis; type: functional, cell-based; conditions: dose 1.25-20 µM, DDE = dose-dependent effect
[15] = system: HepG2; test: Induction of apoptosis in human HepG2 cells assessed as early apoptotic cells at 2.5 uM measured after 48 hrs by Annexin V-FITC/propidium iodide staining based flow cytometry (reference value: 6.87%); type: functional
[16] = system: HepG2; test: Induction of apoptosis in human HepG2 cells assessed as increase in cleaved PARP expression at 1.25 to 20 uM measured after 48 hrs by Western blot analysis; type: functional, cell-based; conditions: dose 1.25-20 µM
[17] = system: HepG2; test: Induction of apoptosis in human HepG2 cells assessed as late apoptotic cells at 10 uM measured after 48 hrs by Annexin V-FITC/propidium iodide staining based flow cytometry (reference value: 4.55%); type: functional
[18] = system: HepG2; test: Induction of apoptosis in human HepG2 cells assessed as early apoptotic cells at 10 uM measured after 48 hrs by Annexin V-FITC/propidium iodide staining based flow cytometry (reference value: 6.87%); type: functional
[19] = system: HepG2; test: Induction of apoptosis in human HepG2 cells assessed as necrotic cells at 10 uM measured after 48 hrs by Annexin V-FITC/propidium iodide staining based flow cytometry (reference value: 0%); type: functional
[20] = system: HepG2; test: Induction of apoptosis in human HepG2 cells assessed as late apoptotic cells at 5 uM measured after 48 hrs by Annexin V-FITC/propidium iodide staining based flow cytometry (reference value: 4.55%); type: functional
[21] = Intrinsic clearance in rat liver microsomes at 1 uM by LC-MS/MS analysis; type: ADME, Microsome; conditions: read-out: CLH
[22] = system: K562; test: Antiproliferative activity against human K562 cells measured after 72 hrs by MTT assay; type: functional, cell-based; conditions: K562, 72 h
[23] = system: HepG2; test: Induction of apoptosis in human HepG2 cells assessed as necrotic cells at 5 uM measured after 48 hrs by Annexin V-FITC/propidium iodide staining based flow cytometry (reference value: 0%); type: functional
[24] = system: HepG2; test: Cell cycle arrest in human HepG2 cells assessed as increase in p27 expression measured after 24 hrs by Western blot analysis; type: functional, cell-based; conditions: dose 1.25-20 µM, DDE = dose-dependent effect

- IC50 [3]: 89 nM
- IC50 [4]: 3340 nM
- IC50 [6]: 9300 nM
- IC50 [11]: 2740 nM
- CLint scaled at 1 µM [21]: 155 mL/min/kg
- IC50 [22]: 2600 nM
SMILES: COc1cc2nc(N3CCN(CCCCCC(=O)NO)CC3)nc(NC3CCN(Cc4ccccc4)CC3)c2cc1OC
- Activity [1]: 0%
- Activity [2]: 24.67%
- Activity [5]: 13.12%
- Activity [7]: 0%
- Activity [8]: 28.84%
- Activity [9]: Active
- Activity [10]: Active
- Activity [12]: 8.59%
- Activity [13]: 15.52%
- Activity [14]: Dde
- Activity [15]: 10.22%
- Activity [16]: Active
- Activity [17]: 6.17%
- Activity [18]: 16.02%
- Activity [19]: 0%
- Activity [20]: 4.14%
- Activity [23]: 0%
- Activity [24]: Dde
